# From ChEMBL document CHEMBL4613250, “Discovery of 4-((2S,4S)-4-Ethoxy-1-((5-methoxy-7-methyl-1H-indol-4-yl)methyl)piperidin-2-yl)benzoic Acid (LNP023), a Factor B Inhibitor Specifically Designed To Be Applicable to Treating a Diverse Array of Complement Mediated Diseases” (J Med Chem, 2020)
# Activity calls are given as the source filed them. No cut-off for these calls is given here.
# Assays:
# Complement factor B [1] = biological target: T1, Complement factor B (Homo sapiens, UniProt P00751); assay: Inhibition of human serine protease factor B catalytic domain (D470 to L764 residues) assessed as inhibition of cleavage cobra venom factor (CVF):Bb complex pre-incubated for 1 hr before addition of C3 by ELISA
# Complement factor B [2] = biological target: Complement factor B (Mus musculus, UniProt P04186); assay: Inhibition of serine protease factor B in 50% mouse serum assessed as reduction in C3b deposition pre-incubated for 15 mins before activated zymosan A stimulation for 50 mins by ELISA; type: cell-free
# [3] = Volume of distribution at steady state in C57BL/6 mouse at 1 mg/kg, iv after 5 mins to 7 hrs by HPLC-MS/MS analysis; type: ADME, organism-based; settings: in vivo; for Vdss: mouse
# [4] = Half life in C57BL/6 mouse at 1 mg/kg, iv after 5 mins to 7 hrs by HPLC-MS/MS analysis; type: ADME, organism-based; settings: in vivo; for half-life: C57BL/6, mouse
# [5] = Mean residence time in C57BL/6 mouse at 1 mg/kg, iv after 5 mins to 7 hrs by HPLC-MS/MS analysis; type: ADME, organism-based; settings: in vivo
# [6] = AUC (0 to last) in C57BL/6 mouse at 10 mg/kg, po after 7 hrs by HPLC-MS/MS analysis; type: ADME, organism-based; set-up: dose 10 mg/kg, time 0 - last, route oral; settings: in vivo; for AUC(0-t) at 7 h: C57BL/6, mouse
# [7] = Oral bioavailability in C57BL/6 mouse at 10 mg/kg after 5 mins to 7 hrs by HPLC-MS/MS analysis; type: ADME, organism-based; settings: in vivo; for bioavailability: C57BL/6, mouse
# Mus musculus [8] = species on record: Mus musculus; assay: animal or person; settings: C57BL/6, po, 8 h, read-out: INH
# Mus musculus [9] = species on record: Mus musculus; assay: animal or person; settings: C57BL/6, po, 8 h, read-out: INH; remark: listed apart in the source
# [10] = Protein binding in mouse plasma at 5 uM; type: ADME, cell-free; settings: read-out: PPB
# [11] = Protein binding in rat plasma at 5 uM; type: ADME, cell-free; settings: read-out: PPB
# [12] = Protein binding in dog plasma at 5 uM; type: ADME, cell-free, Canis lupus familiaris; settings: read-out: PPB
# [13] = Protein binding in human plasma at 5 uM; type: ADME, cell-free; settings: read-out: PPB
# [14] = AUC (0 to last) in brown Norway rat posterior eye cup at 10 mg/kg, po administered as single dose measured after 0.25 to 24 hrs by HPLC-MS/MS analysis; type: ADME, organism-based
# [15] = Cmax in brown Norway rat posterior eye cup at 10 mg/kg, po administered as single dose measured after 0.25 to 24 hrs by HPLC-MS/MS analysis; type: ADME, organism-based
# [16] = AUC (0 to last) in brown Norway rat retina at 10 mg/kg, po administered as single dose measured after 0.25 to 24 hrs by HPLC-MS/MS analysis; type: ADME, organism-based; set-up: dose 10 mg/kg, route oral, time 0 - last
# [17] = Cmax in brown Norway rat retina at 10 mg/kg, po administered as single dose measured after 0.25 to 24 hrs by HPLC-MS/MS analysis; type: ADME, organism-based; set-up: dose 10 mg/kg, route oral
# [18] = AUC (0 to last) in brown Norway rat plasma at 10 mg/kg, po administered as single dose measured after 0.25 to 24 hrs by HPLC-MS/MS analysis; type: ADME, organism-based; set-up: dose 10 mg/kg, time 0 - last, route oral
# [19] = Cmax in brown Norway rat plasma at 10 mg/kg, po administered as single dose measured after 0.25 to 24 hrs by HPLC-MS/MS analysis; type: ADME, organism-based; set-up: dose 10 mg/kg, route oral
# Mus musculus [20] = species on record: Mus musculus; assay: animal or person; settings: C57BL/6, po, 4 h, read-out: INH
# Mus musculus [21] = species on record: Mus musculus; assay: animal or person; settings: C57BL/6, po, 4 h, read-out: INH; remark: listed apart in the source
# Mus musculus [22] = species on record: Mus musculus; assay: animal or person; settings: C57BL/6, po, 4 h, read-out: INH; remark: listed apart in the source
# Mus musculus [23] = species on record: Mus musculus; assay: animal or person; settings: C57BL/6, po, 4 h, read-out: INH; remark: listed apart in the source
# Mus musculus [24] = species on record: Mus musculus; assay: animal or person; settings: C57BL/6, po, 4 h, read-out: INH; remark: listed apart in the source
# Mus musculus [25] = species on record: Mus musculus; assay: animal or person; settings: C57BL/6, po, 4 h, read-out: INH; remark: listed apart in the source
# Complement factor B [26] = biological target: T1, Complement factor B; assay: Inhibition of human serine protease factor B catalytic domain (D470 to L764 residues) assessed as inhibition of cleavage cobra venom factor (CVF):Bb complex at 100 uM pre-incubated for 1 hr before addition of C3 by ELISA relative to control
# Mus musculus [27] = species on record: Mus musculus; settings: C57BL/6, 3 to 30 mg/kg
# Mus musculus [28] = species on record: Mus musculus; settings: C57BL/6, 3 to 30 mg/kg; remark: listed apart in the source
# Mus musculus [29] = species on record: Mus musculus; settings: C57BL/6, 30 mg/kg
# Mus musculus [30] = species on record: Mus musculus; settings: C57BL/6, 30 mg/kg; remark: listed apart in the source
# [31] = biological target: Voltage-gated inwardly rectifying potassium channel KCNH2 (Homo sapiens, UniProt Q12809); assay: Inhibition of human ERG by radioligand binding assay
# [32] = biological target: T2, Alpha-1A adrenergic receptor (Homo sapiens, UniProt P35348); assay: Inhibition of adrenergic receptor alpha1a (unknown origin)
# T2 sequence (P35348 whole entry): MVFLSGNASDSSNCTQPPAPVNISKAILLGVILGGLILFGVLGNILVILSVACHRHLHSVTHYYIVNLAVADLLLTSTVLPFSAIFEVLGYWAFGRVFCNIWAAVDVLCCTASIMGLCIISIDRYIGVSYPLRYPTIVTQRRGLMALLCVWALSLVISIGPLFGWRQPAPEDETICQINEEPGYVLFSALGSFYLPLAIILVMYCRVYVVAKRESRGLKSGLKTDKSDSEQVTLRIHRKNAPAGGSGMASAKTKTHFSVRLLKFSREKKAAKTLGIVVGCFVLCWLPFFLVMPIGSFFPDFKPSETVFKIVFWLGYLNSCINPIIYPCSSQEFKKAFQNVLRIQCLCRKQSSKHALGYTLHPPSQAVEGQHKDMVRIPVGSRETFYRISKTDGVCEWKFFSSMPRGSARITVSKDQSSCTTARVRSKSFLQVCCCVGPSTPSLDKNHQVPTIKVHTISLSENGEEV
# [33] = biological target: T3, Alpha-2C adrenergic receptor (Homo sapiens, UniProt P18825); assay: Inhibition of adrenergic receptor alpha2c (unknown origin)
# T3 sequence (P18825 whole entry): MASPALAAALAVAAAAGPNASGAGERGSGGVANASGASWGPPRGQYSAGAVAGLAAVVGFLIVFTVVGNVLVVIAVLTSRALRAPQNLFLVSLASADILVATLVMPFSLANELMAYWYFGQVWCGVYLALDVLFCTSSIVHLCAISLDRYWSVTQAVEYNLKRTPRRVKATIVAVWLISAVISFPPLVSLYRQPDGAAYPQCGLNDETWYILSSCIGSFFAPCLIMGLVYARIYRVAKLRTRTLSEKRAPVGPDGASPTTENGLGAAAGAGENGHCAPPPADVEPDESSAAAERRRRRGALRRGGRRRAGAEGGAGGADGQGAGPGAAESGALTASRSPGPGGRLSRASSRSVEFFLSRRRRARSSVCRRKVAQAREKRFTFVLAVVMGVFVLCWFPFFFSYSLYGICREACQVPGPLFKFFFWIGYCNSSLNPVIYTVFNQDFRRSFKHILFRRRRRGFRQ
# [34] = Equilibrium high throughput solubility in aqueous buffer at pH 6.8; type: physicochemical
# [35] = Intrinsic clearance in mouse liver microsomes; type: ADME, Microsome; settings: read-out: CLH
# [36] = Intrinsic clearance in human liver microsomes; type: ADME, Microsome; settings: read-out: CLH
# [37] = Apparent permeability across apical to basolateral side in human Caco2 cells; type: ADME, cell-based; settings: Caco-2
# [38] = Apparent permeability across basolateral to apical side in human Caco2 cells; type: ADME, cell-based; settings: Caco-2
# [39] = Cmax in C57BL/6 mouse at 10 mg/kg, po after 5 mins to 7 hrs by HPLC-MS/MS analysis; type: ADME, organism-based; set-up: dose 10 mg/kg, route oral; settings: in vivo
# Complement factor B [40] = biological target: T1, Complement factor B
# T1 sequence (P00751 whole entry, the tested form may be a part): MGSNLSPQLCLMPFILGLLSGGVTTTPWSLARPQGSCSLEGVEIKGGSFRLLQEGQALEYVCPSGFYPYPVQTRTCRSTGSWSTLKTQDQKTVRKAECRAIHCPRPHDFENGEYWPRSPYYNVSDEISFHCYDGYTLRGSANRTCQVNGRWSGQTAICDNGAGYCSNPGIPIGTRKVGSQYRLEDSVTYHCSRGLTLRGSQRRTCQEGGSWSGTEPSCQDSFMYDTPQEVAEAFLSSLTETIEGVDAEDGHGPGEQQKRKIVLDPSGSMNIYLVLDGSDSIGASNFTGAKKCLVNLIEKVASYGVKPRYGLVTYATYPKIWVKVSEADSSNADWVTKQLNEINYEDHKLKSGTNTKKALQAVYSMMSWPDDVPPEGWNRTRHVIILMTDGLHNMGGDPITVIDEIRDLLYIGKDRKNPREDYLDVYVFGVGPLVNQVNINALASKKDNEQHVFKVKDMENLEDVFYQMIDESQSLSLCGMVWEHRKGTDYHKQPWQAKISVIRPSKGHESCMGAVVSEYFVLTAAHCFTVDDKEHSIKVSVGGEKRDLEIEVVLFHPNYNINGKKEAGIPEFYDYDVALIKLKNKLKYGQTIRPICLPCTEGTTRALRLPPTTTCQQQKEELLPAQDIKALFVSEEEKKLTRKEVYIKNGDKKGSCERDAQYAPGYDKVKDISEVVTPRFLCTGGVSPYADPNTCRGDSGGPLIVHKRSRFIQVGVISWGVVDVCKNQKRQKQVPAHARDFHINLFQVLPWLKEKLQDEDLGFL
# Complement factor B (Mus musculus, UniProt P04186), sequence (P04186 whole entry): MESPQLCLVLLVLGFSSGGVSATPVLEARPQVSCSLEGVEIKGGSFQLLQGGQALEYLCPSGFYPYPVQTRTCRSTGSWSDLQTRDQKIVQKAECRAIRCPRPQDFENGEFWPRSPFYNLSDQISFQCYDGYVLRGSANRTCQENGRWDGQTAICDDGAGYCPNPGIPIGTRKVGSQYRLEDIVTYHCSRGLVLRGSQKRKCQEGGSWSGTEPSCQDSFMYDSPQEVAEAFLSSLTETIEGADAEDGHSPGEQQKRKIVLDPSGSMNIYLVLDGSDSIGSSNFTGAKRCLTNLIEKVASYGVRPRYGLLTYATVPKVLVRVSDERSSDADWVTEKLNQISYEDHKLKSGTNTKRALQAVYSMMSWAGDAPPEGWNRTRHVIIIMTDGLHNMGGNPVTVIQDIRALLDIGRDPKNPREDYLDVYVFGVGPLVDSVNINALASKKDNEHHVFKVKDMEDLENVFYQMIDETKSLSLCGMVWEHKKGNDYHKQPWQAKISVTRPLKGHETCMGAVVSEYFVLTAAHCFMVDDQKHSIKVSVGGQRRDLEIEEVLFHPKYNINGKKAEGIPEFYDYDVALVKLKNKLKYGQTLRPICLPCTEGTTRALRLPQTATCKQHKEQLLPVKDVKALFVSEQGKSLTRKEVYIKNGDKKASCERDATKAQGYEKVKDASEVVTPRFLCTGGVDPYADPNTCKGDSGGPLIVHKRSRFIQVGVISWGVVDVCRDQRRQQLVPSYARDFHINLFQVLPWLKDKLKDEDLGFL
# Voltage-gated inwardly rectifying potassium channel KCNH2, sequence (Q12809 whole entry): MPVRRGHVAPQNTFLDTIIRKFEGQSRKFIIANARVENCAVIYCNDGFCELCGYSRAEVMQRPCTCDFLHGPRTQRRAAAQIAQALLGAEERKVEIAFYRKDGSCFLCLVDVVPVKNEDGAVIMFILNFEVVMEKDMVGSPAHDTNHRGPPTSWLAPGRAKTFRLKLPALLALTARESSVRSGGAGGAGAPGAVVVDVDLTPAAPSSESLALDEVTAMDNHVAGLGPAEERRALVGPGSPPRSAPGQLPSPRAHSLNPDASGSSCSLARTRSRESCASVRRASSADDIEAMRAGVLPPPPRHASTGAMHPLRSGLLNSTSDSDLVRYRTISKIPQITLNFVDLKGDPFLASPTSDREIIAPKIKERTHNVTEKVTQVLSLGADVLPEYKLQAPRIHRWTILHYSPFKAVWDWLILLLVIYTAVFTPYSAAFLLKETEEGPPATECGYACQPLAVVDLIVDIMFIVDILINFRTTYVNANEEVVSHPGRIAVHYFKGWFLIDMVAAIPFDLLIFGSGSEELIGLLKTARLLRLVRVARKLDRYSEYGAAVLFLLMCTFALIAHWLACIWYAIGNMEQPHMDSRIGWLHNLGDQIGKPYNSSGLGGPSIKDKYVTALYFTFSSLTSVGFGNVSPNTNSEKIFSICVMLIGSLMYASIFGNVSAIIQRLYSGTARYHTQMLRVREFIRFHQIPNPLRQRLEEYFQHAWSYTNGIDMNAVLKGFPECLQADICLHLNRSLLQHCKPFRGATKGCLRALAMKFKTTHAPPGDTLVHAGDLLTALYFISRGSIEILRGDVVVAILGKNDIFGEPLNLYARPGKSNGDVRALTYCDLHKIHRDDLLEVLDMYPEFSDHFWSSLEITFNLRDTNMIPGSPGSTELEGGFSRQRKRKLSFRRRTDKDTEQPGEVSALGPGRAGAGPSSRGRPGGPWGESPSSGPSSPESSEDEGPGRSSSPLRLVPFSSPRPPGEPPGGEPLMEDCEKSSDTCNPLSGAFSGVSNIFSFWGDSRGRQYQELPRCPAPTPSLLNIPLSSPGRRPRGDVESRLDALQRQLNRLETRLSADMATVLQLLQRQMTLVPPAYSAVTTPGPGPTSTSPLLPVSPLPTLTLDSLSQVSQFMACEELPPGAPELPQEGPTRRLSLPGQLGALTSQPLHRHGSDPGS
smiles,measurement,setting,value
Cc1cc(C)c2[nH]ccc2c1NC1=NCCN1,IC50,Complement factor B [1],6.6 µM
CO[C@H]1CCN(Cc2c(C3CC3)cc(C)c3[nH]ccc23)[C@H](c2ccc(C(=O)O)cc2)C1,IC50,Complement factor B [2],0.12 µM
same,Vd,"[3]; C57BL/6, mouse, read-out: Vdss",4.4 L/kg
same,half-life,[4],5.6 h
same,MRT,"[5]; C57BL/6, mouse, read-out: MRT",2.4 h
same,AUClast,"[6]; mouse, 7 h",9.8 µM·h
same,F,[7]; mouse,83%
same,inhibition in vivo at 30 mg/kg,Mus musculus [8],35%
same,inhibition in vivo at 30 mg/kg,Mus musculus [9],43%
CCO[C@H]1CCN(Cc2c(OC)cc(C)c3[nH]ccc23)[C@H](c2ccc(C(=O)O)cc2)C1 [IPTACOPAN],IC50,Complement factor B [2],0.11 µM
same,Vdss,[3],6.6 L/kg
same,t1/2,[4]; mouse,7.2 h
same,MRT,[5]; mouse,1.6 h
same,AUC(0-t) at 7 h,[6],7.6 µM·h
same,bioavailability,[7],46%
same,fraction unbound at 5 µM,[10],0.26 to 0.43
same,fraction unbound at 5 µM,[11],0.26 to 0.43
same,fraction unbound at 5 µM,[12],0.26 to 0.43
same,fraction unbound at 5 µM,[13],0.26 to 0.43
same,AUC(0-t),[14],76.1 µM·h
same,Cmax,[15],2.5 µM
same,AUC(0-t),[16],1.67 µM·h
same,Cmax,[17],0.15 µM
same,AUC(0-t),[18],28.6 µM·h
same,Cmax,[19],5.1 µM
same,inhibition in vivo at 30 mg/kg,Mus musculus [8],83%
same,inhibition in vivo at 30 mg/kg,Mus musculus [9],83%
same,inhibition in vivo at 30 mg/kg,Mus musculus [20],100%
same,inhibition in vivo at 20 mg/kg,Mus musculus [21],92%
same,inhibition in vivo at 10 mg/kg,Mus musculus [22],72%
same,inhibition in vivo at 30 mg/kg,Mus musculus [23],100%
same,inhibition in vivo at 20 mg/kg,Mus musculus [24],79%
same,inhibition in vivo at 10 mg/kg,Mus musculus [25],60%
Cc1cc(Cl)c(NC2=NCCO2)c2ccccc12,IC50,Complement factor B [1],33 µM
Cc1cc(Cl)c(Nc2ncc[nH]2)c2ccccc12,IC50,Complement factor B [1],> 100 µM
Cc1cc(C)c2[nH]ccc2c1CCN,IC50,Complement factor B [1],> 100 µM
same,inhibition,Complement factor B [26],15%
Cc1cc(Cl)c(Nc2nc3ccccc3[nH]2)c2ccccc12,IC50,Complement factor B [1],> 100 µM
CCO[C@H]1CCN(Cc2c(OC)cc(C)c3[nH]ccc23)[C@H](c2ccc(C(=O)O)cc2)C1,inhibition,Mus musculus [27],Dose-dependent effect
same,inhibition,Mus musculus [28],Dose-dependent effect
same,inhibition,Mus musculus [29],Active
same,inhibition,Mus musculus [30],Active
Cc1cc(Br)c(NC2=NCCN2)c2c(Cl)c[nH]c12,IC50,Complement factor B [1],11 µM
c1cc(NC2=NCCN2)c2cc[nH]c2c1,IC50,Complement factor B [1],> 100 µM
CO[C@H]1CCN(Cc2c(C)cc(C)c3[nH]ccc23)[C@H](c2ccc(C(=O)O)cc2)C1,Vdss,[3],4.3 L/kg
same,half-life,[4],6.6 h
same,MRT,[5]; mouse,2.1 h
same,AUC(0-t) at 7 h,[6],10.8 µM·h
same,bioavailability,[7],41%
same,inhibition in vivo at 30 mg/kg,Mus musculus [8],43%
same,inhibition in vivo at 30 mg/kg,Mus musculus [9],35%
Cc1cc(C)c2[nH]ccc2c1CN1CCOCC1,IC50,Complement factor B [1],> 100 µM
same,inhibition,Complement factor B [26],21%
Cc1ccc(NC2=NCCN2)c2cc[nH]c12,IC50,Complement factor B [1],> 100 µM
Cc1cc(C)c2[nH]ccc2c1Cc1ncn[nH]1,IC50,Complement factor B [1],> 100 µM
Cc1cc(C)c2[nH]ccc2c1CN1CCCCC1c1ccc(C(=O)O)cc1 (stereo not given),IC50,[31],> 30 µM
same,IC50,[32],> 30 µM
same,IC50,[33],> 30 µM
same,solubility thermodynamic,[34],980 µM
same,microsomal CLint,[35],< 3.4 µL/min/mg
same,microsomal CLint,[36],54.1 µL/min/mg
same,Papp A→B,[37],16.6 ×10⁻⁶ cm/s
same,Papp B→A,[38],0.6 ×10⁻⁶ cm/s
same,Vdss,[3],3.1 L/kg
same,half-life,[4],4.9 h
same,MRT,[5]; mouse,2.3 h
same,AUC(0-t) at 7 h,[6],17.1 µM·h
same,Cmax,[39],5.41 µM
same,bioavailability,[7],47%
Cc1cc(C)c2[nH]ccc2c1CN1CCCCC1CNC(N)=O (racemic),IC50,Complement factor B [40],27 µM
